Target: human A2A receptor (A2AR) (Homo sapiens (Human), UniProt P29274)
Assay: Luciferase reporter assay (HEK293-A2AR-luc2p/CRE/Hygro cells)
Type: cell-based
Settings: 3 nM CGS21680, 5 h incubation
Experimental: HEK293 cells were maintained in Dulbecco's modified Eagle's medium (DMEM, Gibco) supplemented with 10% fetal bovine serum (FBS, Thermo Scientific), 100 units/mL penicillin (Gibco), and 0.1 mg/mL streptomycin (Gibco) in a humidified 37° C. environment with 5% CO2. Plasmid encoding wild-type human A2A receptor (A2AR) (in pcDNA3.1) was synthesized by Genscript (Nanjing, China). Transfection of the plasmids was performed in 6-well plates with 4×10^5 cells using Lipofectamin 2000 (ThermoFisher Scientific) according to the instruction of the manufacturer. Cell clones that stably express A2AR were established and maintained in the same complete medium as the HEK293 cells in addition of G-418 (Gibico). Expression level of A2AR in each single cell clone was determined using immunoblotting and FACS method. HEK293-A2AR stable cells were then transfected with pGL4.29[luc2P/CRE/Hygro] (Promega) luciferase reporter plasmid for establishing the HEK293-A2AR-luc2p/CRE/Hygro stable cell line.
HEK293-A2AR-luc2p/CRE/Hygro cells were seeded at a density of 5,000 cells/well in DMEM with 1% FBS and 1 U/mL adenosine deaminase (ADA) (Sigma). After 18 h, the cells were treated with 3 nM CGS21680 plus a series dilution of A2AR antagonist, the compounds disclosed herein at the concentration of 0.1˜10000 nM, prepared in DMEM with 1% FBS. After 5 h incubation, the luciferase activity in cells were measured using the Bright-Glo Luciferase Assay System (Promega) according to manufacturer's instructions. The luminescence signal was measured using a PHERAstar FS plate reader (BMG Labtech). […] Maximal luminescence intensity was determined in the presence of 3 nM CGS21680 and was set as 100%. The IC50 value was calculated from a dose dependent inhibition curve across the range of compound concentrations.

Sequence of human A2A receptor (A2AR) (P29274 whole entry): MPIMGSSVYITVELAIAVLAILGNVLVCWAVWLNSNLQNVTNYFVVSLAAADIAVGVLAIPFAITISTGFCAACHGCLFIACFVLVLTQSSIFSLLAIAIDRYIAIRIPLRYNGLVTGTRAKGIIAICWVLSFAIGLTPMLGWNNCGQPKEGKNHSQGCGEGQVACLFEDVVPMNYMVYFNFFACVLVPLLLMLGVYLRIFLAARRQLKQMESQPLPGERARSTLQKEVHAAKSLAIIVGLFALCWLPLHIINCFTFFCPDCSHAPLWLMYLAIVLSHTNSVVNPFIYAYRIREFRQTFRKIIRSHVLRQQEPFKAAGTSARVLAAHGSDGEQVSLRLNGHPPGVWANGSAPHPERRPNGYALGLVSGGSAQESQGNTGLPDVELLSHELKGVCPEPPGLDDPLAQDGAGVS

Row | IC50 | SMILES
1 | 41.7 nM | C[C@](C(=O)N[C@H]1COC[C@@H]1O)(c1ccccc1)n1ncc2c1nc(N)n1nc(-c3ccco3)nc21 [Example 106B, (R)-2-(5-amino-2-(furan-2-yl)-7H-pyrazolo[4,3-e][1,2,4]triazolo[1,5-c]pyrimidin-7-yl)-N-((3S,4R)-4-hydroxytetrahydrofuran-3-yl)-2-phenylpropanamide]
2 | 2.4 nM | Cc1ccnc(CNC(=O)C(C)(c2ccccc2)n2ncc3c2nc(N)n2nc(-c4ccco4)nc32)c1 (centres unmarked) [Example 110, 2-(5-amino-2-(furan-2-yl)-7H-pyrazolo[4,3-e][1,2,4]triazolo[1,5-c]pyrimidin-7-yl)-N-((4-methylpyridin-2-yl)methyl)-2-phenylpropanamide]
3 | 1.2 nM | COc1cccc(CNC(=O)[C@@](C)(c2ccccc2)n2ncc3c2nc(N)n2nc(-c4ccco4)nc32)n1 [Example 112B, (R)-2-(5-amino-2-(furan-2-yl)-7H-pyrazolo[4,3-e][1,2,4]triazolo[1,5-c]pyrimidin-7-yl)-N-((6-methoxypyridin-2-yl)methyl)-2-phenylpropanamide]
4 | 1.4 nM | Nc1nc2c(cnn2C(C(=O)NCc2cccc(C(F)(F)F)c2)c2ccccc2)c2nc(-c3ccco3)nn12 (centres unmarked) [Example 22, 2-(5-amino-2-(furan-2-yl)-7H-pyrazolo[4,3-e][1,2,4]triazolo[1,5-c]pyrimidin-7-yl)-2-phenyl-N-(3-(trifluoromethyl)benzyl)acetamide]
5 | 3.3 nM | COc1ccnc(CNC(=O)C(C)(c2ccccc2)n2ncc3c2nc(N)n2nc(-c4ccco4)nc32)c1 (centres unmarked) [Example 114, 2-(5-amino-2-(furan-2-yl)-7H-pyrazolo[4,3-e][1,2,4]triazolo[1,5-c]pyrimidin-7-yl)-N-((4-methoxypyridin-2-yl)methyl)-2-phenylpropanamide]
6 | 4.9 nM | CC(C(=O)NCC1(O)COC1)(c1ccccc1F)n1ncc2c1nc(N)n1nc(-c3ccco3)nc21 (centres unmarked) [Example 87, 2-(5-amino-2-(furan-2-yl)-7H-pyrazolo[4,3-e][1,2,4]triazolo[1,5-c]pyrimidin-7-yl)-2-(2-fluorophenyl)-N-((3-hydroxyoxetan-3-yl)methyl)propanamide]
7 | 3.8 nM | CNC(=O)C(c1ccccc1)n1ncc2c1nc(N)n1nc(-c3ccco3)nc21 (centres unmarked) [Example 4, 2-(5-amino-2-(furan-2-yl)-7H-pyrazolo[4,3-e][1,2,4]-triazolo[1,5-c]pyrimidin-7-yl)-N-methyl-2-phenylacetamide]
8 | 11.9 nM | Nc1nc2c(cnn2C(C(=O)NC2CCCCC2)c2ccccc2)c2nc(-c3ccco3)nn12 (centres unmarked) [Example 2, 2-(5-amino-2-(furan-2-yl)-7H-pyrazolo[4,3-e][1,2,4]triazolo[1,5-c]pyrimidin-7-yl)-N-cyclohexyl-2-phenylacetamide]
9 | 10.7 nM | CC(C(=O)N[C@H]1C[C@@](C)(O)C1)(c1ccccc1)n1ncc2c1nc(N)n1nc(-c3ccco3)nc21 (stereo partly drawn) [Example 105, 2-(5-amino-2-(furan-2-yl)-7H-pyrazolo[4,3-e][1,2,4]triazolo[1,5-c]pyrimidin-7-yl)-N-((1S,3S)-3-hydroxy-3-methylcyclobutyl)-2-phenylpropanamide]
10 | 1.9 nM | COc1cccnc1CNC(=O)C(C)(c1ccccc1)n1ncc2c1nc(N)n1nc(-c3ccco3)nc21 (centres unmarked) [Example 115, 2-(5-amino-2-(furan-2-yl)-7H-pyrazolo[4,3-e][1,2,4]triazolo[1,5-c]pyrimidin-7-yl)-N-((3-methoxypyridin-2-yl)methyl)-2-phenylpropanamide]
11 | 567 nM | C[C@](C(=O)O)(c1ccccc1)n1ncc2c1nc(N)n1nc(-c3ccco3)nc21 [Intermediate-Ib, (R)-2-(5-amino-2-(furan-2-yl)-7H-pyrazolo[4,3-e][1,2,4]triazolo[1,5-c]pyrimidin-7-yl)-2-phenylpropanoic acid]
12 | 12.9 nM | CC(C(=O)NC1CCC(O)C1)(c1ccccc1)n1ncc2c1nc(N)n1nc(-c3ccco3)nc21 (centres unmarked) [Example 36, 2-(5-amino-2-(furan-2-yl)-7H-pyrazolo[4,3-e][1,2,4]triazolo[1,5-c]pyrimidin-7-yl)-N-(3-hydroxycyclopentyl)-2-phenylpropanamide]
13 | 32.2 nM | C[C@](C(=O)N[C@H]1COC[C@H]1O)(c1ccccc1)n1ncc2c1nc(N)n1nc(-c3ccco3)nc21 [Example 107B, (R)-2-(5-amino-2-(furan-2-yl)-7H-pyrazolo[4,3-e][1,2,4]triazolo[1,5-c]pyrimidin-7-yl)-N-((3S,4S)-4-hydroxytetrahydrofuran-3-yl)-2-phenylpropanamide]
14 | 7.6 nM | C[C@](C(=O)NC1CCC(=O)CC1)(c1ccccc1)n1ncc2c1nc(N)n1nc(-c3ccco3)nc21 [Example 128B, (R)-2-(5-amino-2-(furan-2-yl)-7H-pyrazolo[4,3-e][1,2,4]triazolo[1,5-c]pyrimidin-7-yl)-N-(4-oxocyclohexyl)-2-phenylpropanamide]
15 | 1.7 nM | COc1ccccc1C(C)(C(=O)NCC1(O)COC1)n1ncc2c1nc(N)n1nc(-c3ccco3)nc21 (centres unmarked) [Example 70, 2-(5-amino-2-(furan-2-yl)-7H-pyrazolo[4,3-e][1,2,4]triazolo[1,5-c]pyrimidin-7-yl)-N-((3-hydroxyoxetan-3-yl)methyl)-2-(2-methoxyphenyl)propanamide]
16 | 25 nM | CNC(=O)C(C)(c1ccccc1)n1ncc2c1nc(N)n1nc(-c3ccco3)nc21 (centres unmarked) [Example 32, 2-(5-amino-2-(furan-2-yl)-7H-pyrazolo[4,3-e][1,2,4]triazolo[1,5-c]pyrimidin-7-yl)-N-methyl-2-phenylpropanamide]
17 | 11.1 nM | CC(C(=O)NCCC1CCOC1)(c1ccccc1)n1ncc2c1nc(N)n1nc(-c3ccco3)nc21 (centres unmarked) [Example 74, 2-(5-amino-2-(furan-2-yl)-7H-pyrazolo[4,3-e][1,2,4]triazolo[1,5-c]pyrimidin-7-yl)-2-phenyl-N-(2-(tetrahydrofuran-3-yl)ethyl)propanamide]
18 | 5.2 nM | Nc1nc2c(cnn2C(C(=O)Nc2ccccc2)c2ccccc2)c2nc(-c3ccco3)nn12 (centres unmarked) [Example 3, 2-(5-amino-2-(furan-2-yl)-7H-pyrazolo[4,3-e][1,2,4]triazolo[1,5-c]pyrimidin-7-yl)-N,2-diphenylacetamide]
19 | 2.9 nM | Cc1ccnc(CNC(=O)[C@@](C)(c2ccccc2)n2ncc3c2nc(N)n2nc(-c4ccco4)nc32)c1 [Example 110B, (R)-2-(5-amino-2-(furan-2-yl)-7H-pyrazolo[4,3-e][1,2,4]triazolo[1,5-c]pyrimidin-7-yl)-N-((4-methylpyridin-2-yl)methyl)-2-phenylpropanamide]
20 | 8.5 nM | CC(C(=O)N[C@H]1CCC[C@@H](O)C1)(c1ccccc1)n1ncc2c1nc(N)n1nc(-c3ccco3)nc21 (stereo partly drawn) [Example 123, 2-(5-amino-2-(furan-2-yl)-7H-pyrazolo[4,3-e][1,2,4]triazolo[1,5-c]pyrimidin-7-yl)-N-((1S,3R)-3-hydroxycyclohexyl)-2-phenylpropanamide]
21 | 22.5 nM | COCCOc1ccc(N2CCN(CCNC(=O)C(C)(c3ccccc3)n3ncc4c3nc(N)n3nc(-c5ccco5)nc43)CC2)cc1 (centres unmarked) [Example 44, 2-(5-amino-2-(furan-2-yl)-7H-pyrazolo[4,3-e][1,2,4]triazolo[1,5-c]pyrimidin-7-yl)-N-(2-(4-(4-(2-methoxyethoxy)phenyl)piperazin-1-yl)ethyl)-2-phenylpropanamide]
22 | 17 nM | CC(C(=O)NCc1cccnc1)(c1ccccc1)n1ncc2c1nc(N)n1nc(-c3ccco3)nc21 (centres unmarked) [Example 84, 2-(5-amino-2-(furan-2-yl)-7H-pyrazolo[4,3-e][1,2,4]triazolo[1,5-c]pyrimidin-7-yl)-2-phenyl-N-(pyridin-3-ylmethyl)propenamide]
23 | 2.3 nM | CC1(O)CCC(NC(=O)[C@@](C)(c2ccccc2)n2ncc3c2nc(N)n2nc(-c4ccco4)nc32)CC1 (stereo in doubt) [Example 33B, (R)-2-(5-amino-2-(furan-2-yl)-7H-pyrazolo[4,3-e][1,2,4]triazolo[1,5-c]pyrimidin-7-yl)-(trans)-N-(4-hydroxy-4-methylcyclohexyl)-2-phenylpropanamide]
24 | 7 nM | CCNC(=O)C(c1ccccc1)n1ncc2c1nc(N)n1nc(-c3ccco3)nc21 (centres unmarked) [Example 5, 2-(5-amino-2-(furan-2-yl)-7H-pyrazolo[4,3-e][1,2,4]triazolo[1,5-c]pyrimidin-7-yl)-N-ethyl-2-phenylacetamide]
25 | 9.5 nM | CC(C(=O)N[C@H]1CC[C@H](O)C1)(c1ccccc1)n1ncc2c1nc(N)n1nc(-c3ccco3)nc21 (stereo partly drawn) [Example 95, 2-(5-amino-2-(furan-2-yl)-7H-pyrazolo[4,3-e][1,2,4]triazolo[1,5-c]pyrimidin-7-yl)-N-((1S,3S)-3-hydroxycyclopentyl)-2-phenylpropanamide]
26 | 5.6 nM | Nc1nc2c(cnn2C(C(=O)NCc2ccc(OC(F)(F)F)cc2)c2ccccc2)c2nc(-c3ccco3)nn12 (centres unmarked) [Example 24, 2-(5-amino-2-(furan-2-yl)-7H-pyrazolo[4,3-e][1,2,4]triazolo[1,5-c]pyrimidin-7-yl)-2-phenyl-N-(4-(trifluoromethoxy)benzyl)acetamide]

Source: patent US11472811B2, “Pyrazolotriazolopyrimidine derivatives as A2A receptor antagonist” (BEIGENE, LTD., priority 2018, dated 2022)
